Assay results published in ChEMBL document CHEMBL1201862, “PubChem BioAssay data set” (2004).
Activity calls are given as the source filed them.

Columns and labels:
[1] = molecular target: T1, Heat shock factor protein 1 (Mus musculus, UniProt P38532); assay: inhibition of MG132-induced HSE-luciferase signal, confirmation, cell-based, NIH3T3, luminescence, dose retest (AID 2382); assay type: functional;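 further: NIH3T3 fibroblasts with HSF1-driven luciferase reporter stressed by proteasome inhibitor MG132; luminescence from HSF1-driven luciferase expression after 8 hours of MG132 stress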
T1 sequence (P38532 whole entry): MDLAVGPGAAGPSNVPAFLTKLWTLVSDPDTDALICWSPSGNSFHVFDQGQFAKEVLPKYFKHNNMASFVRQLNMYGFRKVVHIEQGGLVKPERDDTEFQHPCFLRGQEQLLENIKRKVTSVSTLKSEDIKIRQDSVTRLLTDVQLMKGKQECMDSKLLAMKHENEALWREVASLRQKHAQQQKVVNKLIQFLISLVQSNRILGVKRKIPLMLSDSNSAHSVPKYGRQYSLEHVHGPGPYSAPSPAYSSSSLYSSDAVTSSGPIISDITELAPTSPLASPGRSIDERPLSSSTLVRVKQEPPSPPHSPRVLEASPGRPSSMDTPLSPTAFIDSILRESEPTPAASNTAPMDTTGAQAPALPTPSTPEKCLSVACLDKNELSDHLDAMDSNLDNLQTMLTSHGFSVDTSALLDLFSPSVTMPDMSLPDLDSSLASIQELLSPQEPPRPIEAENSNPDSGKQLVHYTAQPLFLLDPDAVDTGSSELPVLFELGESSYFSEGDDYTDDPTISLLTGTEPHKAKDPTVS

Escherichia coli = assay: microbe, parasite or virus in culture
Candida albicans = assay: growth inhibition of resistant C. albicans, dose response, CaCi-8 strain, fluconazole, dry powder, set 4 (AID 488950); assay type: functional, organism-based
Hexokinase-1 = Hexokinase-1 (Homo sapiens, UniProt P19367); assay: SAR analysis of small molecule inhibitors of hexokinase domain containing I (HKDC1) in the hexokinase 1 selectivity assay. [Related pubchem assays (depositor defined):AID493160, AID493190]; assay type: functional
Hexokinase HKDC1 = molecular target: T2, Hexokinase HKDC1 (Homo sapiens, UniProt Q2TB90); assay: SAR analysis of small molecule inhibitors of hexokinase domain containing I (HKDC1). [Related pubchem assays (depositor defined):AID493160, AID493190]; assay type: functional
T2 sequence (Q2TB90 whole entry): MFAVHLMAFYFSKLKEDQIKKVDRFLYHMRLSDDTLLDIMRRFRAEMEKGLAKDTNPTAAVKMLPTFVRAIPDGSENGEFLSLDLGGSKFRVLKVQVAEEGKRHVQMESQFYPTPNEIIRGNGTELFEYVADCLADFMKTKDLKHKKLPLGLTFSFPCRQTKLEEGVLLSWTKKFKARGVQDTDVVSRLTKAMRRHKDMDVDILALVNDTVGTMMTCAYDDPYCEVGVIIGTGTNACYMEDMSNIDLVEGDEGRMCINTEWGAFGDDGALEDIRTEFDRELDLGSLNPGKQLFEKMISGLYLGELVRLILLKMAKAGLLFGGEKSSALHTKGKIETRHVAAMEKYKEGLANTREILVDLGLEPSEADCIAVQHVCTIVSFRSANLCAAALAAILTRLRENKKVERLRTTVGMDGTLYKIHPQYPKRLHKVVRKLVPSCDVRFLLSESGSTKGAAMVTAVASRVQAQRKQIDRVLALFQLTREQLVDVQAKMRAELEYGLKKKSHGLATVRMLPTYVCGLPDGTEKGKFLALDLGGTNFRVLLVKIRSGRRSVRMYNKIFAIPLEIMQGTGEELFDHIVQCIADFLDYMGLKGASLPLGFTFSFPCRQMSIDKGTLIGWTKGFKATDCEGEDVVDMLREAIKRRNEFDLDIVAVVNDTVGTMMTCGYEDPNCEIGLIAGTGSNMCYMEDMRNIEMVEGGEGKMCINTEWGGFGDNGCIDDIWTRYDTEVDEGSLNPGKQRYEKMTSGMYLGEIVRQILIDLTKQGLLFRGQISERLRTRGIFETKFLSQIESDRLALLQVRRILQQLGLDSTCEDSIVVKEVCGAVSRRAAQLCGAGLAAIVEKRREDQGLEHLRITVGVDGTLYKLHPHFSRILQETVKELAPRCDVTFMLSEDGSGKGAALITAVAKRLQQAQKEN

Jurkat = assay: SAR Analysis of small molecule inhibitors of T-cell specific antigen receptor-induced NF-kB activation in a Jurkat cell line using a luminescence assay - Set 2. [Related pubchem assays (depositor defined):AID435003, AID435012, AID465]; assay type: functional, cell-based; conditions: Homo sapiens
HEK293 [2] = assay: SAR Analysis of small molecule inhibitors of T-cell specific antigen receptor-induced NF-kB activation in a HEK-293T cell line using a luminescence assay - Set 2. [Related pubchem assays (depositor defined):AID435003, AID435012, AID489026]; assay type: functional, cell-based; conditions: Homo sapiens
HEK293 [3] = assay: cytotoxicity in HEK293T NF-kB-Luc cells, SAR follow-up, cytotoxicity control for NF-kB activator project, cell-based, resazurin fluorescence (AID 493251); assay type: functional; conditions: Homo sapiens

Sequence of Hexokinase-1 (P19367 whole entry, the tested form may be a part): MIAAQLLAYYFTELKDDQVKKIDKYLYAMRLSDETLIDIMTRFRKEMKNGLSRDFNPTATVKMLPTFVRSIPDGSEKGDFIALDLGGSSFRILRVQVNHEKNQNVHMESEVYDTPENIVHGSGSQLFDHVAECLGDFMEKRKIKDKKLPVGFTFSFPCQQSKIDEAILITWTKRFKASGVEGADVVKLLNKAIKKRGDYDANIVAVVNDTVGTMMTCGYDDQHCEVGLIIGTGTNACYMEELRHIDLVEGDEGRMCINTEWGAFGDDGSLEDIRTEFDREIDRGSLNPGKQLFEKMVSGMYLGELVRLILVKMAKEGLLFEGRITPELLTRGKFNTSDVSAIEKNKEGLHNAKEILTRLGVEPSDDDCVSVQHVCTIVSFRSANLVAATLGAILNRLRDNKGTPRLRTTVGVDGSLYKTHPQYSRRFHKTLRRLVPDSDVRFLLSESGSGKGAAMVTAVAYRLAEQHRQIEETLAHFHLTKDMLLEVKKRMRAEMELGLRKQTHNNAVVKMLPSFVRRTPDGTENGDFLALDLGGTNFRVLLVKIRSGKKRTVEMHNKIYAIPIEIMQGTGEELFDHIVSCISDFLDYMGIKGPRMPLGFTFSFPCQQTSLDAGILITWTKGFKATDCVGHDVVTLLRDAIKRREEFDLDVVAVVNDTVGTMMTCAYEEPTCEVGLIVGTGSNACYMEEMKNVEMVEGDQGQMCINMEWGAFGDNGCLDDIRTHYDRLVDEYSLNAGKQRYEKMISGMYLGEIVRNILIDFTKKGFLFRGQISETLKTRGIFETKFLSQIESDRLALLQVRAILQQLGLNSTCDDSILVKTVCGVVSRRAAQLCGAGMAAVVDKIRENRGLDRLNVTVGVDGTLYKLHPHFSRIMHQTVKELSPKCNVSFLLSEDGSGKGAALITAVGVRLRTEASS

Q: Which EC50 [1] does the source give for CCn1ccnc1CN(C)C(=O)c1cc(COc2ccc(Cl)cc2OC)on1 here?
A: > 195 µM (not active)

Q: And the AC50 (Escherichia coli)?
A: 160 µM (active)

Q: O=C(c1ccc(Cl)cc1)N1CCN(c2ccnc3ccccc23)CC1 was tested. Which AC50 (Candida albicans) did it give?
A: 9.81 µM (active)

Q: O=c1c2ccccc2nc(/C=C/c2ccncc2)n1-c1ccccc1 was tested. Which IC50 (Hexokinase-1) did it give?
A: > 80 µM (inactive)

Q: What about the IC50 (Hexokinase HKDC1) of the same compound?
A: > 80 µM (inactive)

Q: Which results are given for COc1ccc(C(NC(=O)CCc2ccccc2)c2ccc3cccnc3c2O)cc1 (stereo not drawn)?
A: IC50 (Jurkat): 2.52 µM (active); IC50 (HEK293 [2]): 2.3 µM (active); IC50 (HEK293 [3]): 22.5 µM (inactive)
